Test results published in patent US6516214B1, “Detection of stroke events using diffuse optical tomography” (The General Hospital Corporation, priority 2000, dated 2003).

Test: Monitoring cerebral blood flow in an adult human by DOT after an indocyanine green bolus
Assay type: in vivo
Excerpt: A 100 mW, 808 nm laser diode coupled to a 1 mm diameter fused silica fiber was used to deliver light to an adult human head. Four diode detectors were coupled to the scalp via 3 mm diameter plastic fibers. The collecting fibers were positioned 1, 2, 3, and 4 cm from the emitting fiber. These four separations were chosen to discriminate between scalp signals and […]. Measurements made at 1 and 2 cm separations were sensitive to changes in the optical properties of only the skull and scalp. On the other hand, measurements made at 3 and 4 cm separations were sensitive to changes in the optical properties of the brain, skull, and scalp. The remitted intensity at the four positions was sampled at 4 Hz. Baseline data was collected for 10 seconds, followed by the bolus injection. The bolus consisted of a 2 ml saline solution of 40 mg of indocyanine green injected into a vein in the arm of the volunteer. This injection was immediately followed by a 10 ml saline flush.
The data is summarized in the graph of FIG. 15, showing the attenuation of the optical signal caused by passing of the bolus of indocyanine green through the brain of the adult human volunteer. […] The small increases in each signal at about 34 seconds resulted from the re-circulation of the indocyanine green bolus.

- delay of the drop in the signals relative to 3 and 4 cm separations (1 and 2 cm optode separations (scalp and skull only)): about 2 seconds
- time following injection of the dye bolus at which the signal dropped significantly (3 and 4 cm optode separations, 40 mg in 2 ml saline i.v. in the arm, 808 nm): 20 s
- time of small signal increases from re-circulation of the bolus (each signal, all separations): about 34 seconds
- concentration of second passage bolus, times smaller than the first passage bolus (re-circulation): about 10 times
SMILES: CC1(C)C(/C=C/C=C/C=C/C=C2\N(CCCCS(=O)(=O)O)c3ccc4ccccc4c3C2(C)C)=[N+](CCCCS(=O)(=O)[O-])c2ccc3ccccc3c21 [indocyanine green]
